# Where a name gives a salt, the structure may show the parent alone.
# System: HIV
# Assay: MT4 assay: antiviral HIV activity in MT-4 cells
# Type: cell-based
# Conditions: HTLV-1 transformed cell line MT-4; read-out 96 hours later with cell titer glo; 10 point dose response; trifluoroacetic acid salt; read-out: HIV MT4 Assay IC50
# Protocol: Antiviral HIV activity and cytotoxicity values for compounds of the invention from Table 1 were measured in parallel in the HTLV-1 transformed cell line MT-4 based on the method previously described (Hazen et al., 2007, In vitro antiviral activity of the novel, tyrosyl-based human immunodeficiency virus (HIV) type 1 protease inhibitor brecanavir (GW640385) in combination with other antiretrovirals and against a panel of protease inhibitor-resistant HIV (Hazen et al., “In vitro antiviral activity of the novel, tyrosyl-based human immunodeficiency virus (HIV) type 1 protease inhibitor brecanavir (GW640385) in combination with other antiretrovirals and against a panel of protease inhibitor-resistant HIV”, Antimicrob. Agents Chemother. 2007, 51: 3147-3154; and Pauwels et al., “Sensitive and rapid assay on MT-4 cells for the detection of antiviral compounds against the AIDS virus”, J. of Virological Methods 1987, 16: 171-185).
# Luciferase activity was measured 96 hours later by adding a cell titer glo (Promega, Madison, Wis.). Percent inhibition of cell protection data was plotted relative to no compound control. Under the same condition, cytotoxicity of the compounds was determined using cell titer Glo™ (Promega, Madison, Wis.). IC50s were determined from a 10 point dose response curve using 3-4-fold serial dilution for each compound, which spans a concentration range>1000 fold.
# These values are plotted against the molar compound concentrations using the standard four parameter logistic equation: y=((Vmax*x^n)/(K^n+x^n))+Y2
# Y2=minimum y n=slope factor
# Vmax=maximum y x=compound concentration [M]
row,Compound,IC50
1,"Cc1nc2c(ccn2Cc2ccc(F)c(F)c2)c(-c2ccc3c(c2C)NCCO3)c1[C@H](OC(C)(C)C)C(=O)O (atropisomer, axis not shown; (P)) [Example 100, (2S)(P)-2-(tert-butoxy)-2-(1-(3,4-difluorobenzyl)-6-methyl-4-(5-methyl-3,4-dihydro-2H-benzo[b][1,4]oxazin-6-yl)-1H-pyrrolo[2,3-b]pyridin-5-yl)acetic acid, trifluoroacetic acid salt]",0.1 µM

# Same assay, conditions: Human immunodeficiency virus 1, MT4, 96 h, read-out: HIV MT4 Assay IC50 (μM), HTLV-1 transformed cell line MT-4; read-out 96 hours later with cell titer glo; 10 point dose response
row,Compound,IC50
1,"Cc1nc2c(ccn2C)c(-c2cc(F)c3c(c2C)CCCO3)c1[C@H](OC(C)(C)C)C(=O)O (atropisomer, axis not shown; (M)) [Example 131, (2S)(M)-2-(tert-butoxy)-2-(4-(8-fluoro-5-methylchroman-6-yl)-1,6-dimethyl-1H-pyrrolo[2,3-b]pyridin-5-yl)acetic acid, Trifluoroacetic acid salt]",0.055 µM
2,"Cc1nc2c(ccn2Cc2cccc(F)c2F)c(-c2cc(F)c3c(c2C)NCCO3)c1[C@H](OC(C)(C)C)C(=O)O (atropisomer, axis not shown; (M)) [Example 132]",0.021 µM
3,"Cc1ccc(-c2c(C(OC(C)(C)C)C(=O)O)c(C)nc3c2ccn3Cc2ccc(F)cc2)cc1 (stereo not drawn) [Example 1, 2-(tert-butoxy)-2-(1-(4-fluorobenzyl)-6-methyl-4-(p-tolyl)-1H-pyrrolo[2,3-b]pyridin-5-yl)acetic acid]",0.18 µM
4,"Cc1ccc(-c2c([C@H](OC(C)(C)C)C(=O)O)c(C)nc3c2ccn3Cc2ccc(F)cc2)cc1 [Example 2, (S)-2-(tert-butoxy)-2-(1-(4-fluorobenzyl)-6-methyl-4-(p-tolyl)-1H-pyrrolo[2,3-b]pyridin-5-yl)acetic acid]",0.08 µM
5,"Cc1nc2c(ccn2Cc2ccc(F)c(F)c2)c(-c2ccc(Cl)cc2)c1[C@H](OC(C)(C)C)C(=O)O [Example 3, (S)-2-(tert-butoxy)-2-(4-(4-chlorophenyl)-1-(3,4-difluorobenzyl)-6-methyl-1H-pyrrolo[2,3-b]pyridin-5-yl)acetic acid]",0.09 µM
6,"Cc1ccc(-c2c(C(OC(C)(C)C)C(=O)O)c(C)nc3c2ccn3Cc2ccccn2)cc1 (stereo not drawn) [Example 4, 2-(tert-Butoxy)-2-(6-methyl-1-(pyridin-2-ylmethyl)-4-(p-tolyl)-1H-pyrrolo[2,3-b]pyridin-5-yl)acetic acid, Trifluoroacetic acid salt]",1.05 µM
7,"Cc1ccc(-c2c(C(OC(C)(C)C)C(=O)O)c(C)nc3c2ccn3Cc2ccc(F)c(F)c2)cc1 (stereo not drawn) [Example 5, 2-(tert-butoxy)-2-(1-(3,4-difluorobenzyl)-6-methyl-4-(p-tolyl)-1H-pyrrolo[2,3-b]pyridin-5-yl)acetic acid]",0.2 µM
8,"Cc1ccc(-c2c(C(OC(C)(C)C)C(=O)O)c(C)nc3c2ccn3Cc2cc(F)ccc2F)cc1 (stereo not drawn) [Example 6, 2-(tert-butoxy)-2-(1-(2,5-difluorobenzyl)-6-methyl-4-(p-tolyl)-1H-pyrrolo[2,3-b]pyridin-5-yl)acetic acid]",0.182 µM
9,"Cc1ccc(-c2c([C@H](OC(C)(C)C)C(=O)O)c(C)nc3c2ccn3Cc2cc(F)ccc2F)cc1 [Example 7, (S)-2-(tert-butoxy)-2-(1-(2,5-difluorobenzyl)-6-methyl-4-(p-tolyl)-1H-pyrrolo[2,3-b]pyridin-5-yl)acetic acid]",0.106 µM
10,"Cc1ccc(-c2c(C(OC(C)(C)C)C(=O)O)c(C)nc3c2ccn3Cc2cc(F)c(F)c(F)c2)cc1 (stereo not drawn) [Example 8, 2-(tert-butoxy)-2-(6-methyl-4-(p-tolyl)-1-(3,4,5-trifluorobenzyl)-1H-pyrrolo[2,3-b]pyridin-5-yl)acetic acid]",0.16 µM
11,"Cc1ccc(-c2c([C@H](OC(C)(C)C)C(=O)O)c(C)nc3c2ccn3Cc2cc(F)c(F)c(F)c2)cc1 [Example 9, (S)-2-(tert-butoxy)-2-(6-methyl-4-(p-tolyl)-1-(3,4,5-trifluorobenzyl)-1H-pyrrolo[2,3-b]pyridin-5-yl)acetic acid]",0.04 µM
12,"Cc1ccc(-c2c([C@@H](OC(C)(C)C)C(=O)O)c(C)nc3c2ccn3Cc2cc(F)c(F)c(F)c2)cc1 [Example 10, (R)-2-(tert-butoxy)-2-(6-methyl-4-(p-tolyl)-1-(3,4,5-trifluorobenzyl)-1H-pyrrolo[2,3-b]pyridin-5-yl)acetic acid]",10 µM
13,"Cc1nc2c(ccn2Cc2ccc(F)c(F)c2)c(-c2ccc3c(c2)CCCO3)c1C(OC(C)(C)C)C(=O)O (stereo not drawn) [Example 11, 2-(tert-butoxy)-2-(4-(chroman-6-yl)-1-(3,4-difluorobenzyl)-6-methyl-1H-pyrrolo[2,3-b]pyridin-5-yl)acetic acid]",0.09 µM
14,"Cc1ccc(-c2c(C(OC(C)(C)C)C(=O)O)c(C)nc3c2ccn3Cc2ccc(C)c(F)c2)cc1 (stereo not drawn) [Example 12, 2-(tert-butoxy)-2-(1-(3-fluoro-4-methylbenzyl)-6-methyl-4-(p-tolyl)-1H-pyrrolo[2,3-b]pyridin-5-yl)acetic acid]",2.1 µM
15,"Cc1ccc(-c2c(C(OC(C)(C)C)C(=O)O)c(C)nc3c2ccn3Cc2ccc(F)cc2Cl)cc1 (stereo not drawn) [Example 13, 2-(tert-butoxy)-2-(1-(2-chloro-4-fluorobenzyl)-6-methyl-4-(p-tolyl)-1H-pyrrolo[2,3-b]pyridin-5-yl)acetic acid]",0.43 µM
16,"Cc1ccc(-c2c([C@@H](OC(C)(C)C)C(=O)O)c(C)nc3c2ccn3[C@H](C)c2ccc(F)cc2)cc1 [Example 14, (R)-2-(tert-butoxy)-2-(1-((R)-1-(4-fluorophenyl)ethyl)-6-methyl-4-(p-tolyl)-1H-pyrrolo[2,3-b]pyridin-5-yl)acetic acid]",0.71 µM
17,"Cc1ccc(-c2c([C@H](OC(C)(C)C)C(=O)O)c(C)nc3c2ccn3[C@H](C)c2ccc(F)cc2)cc1 [Example 15, (S)-2-(tert-butoxy)-2-(1-((R)-1-(4-fluorophenyl)ethyl)-6-methyl-4-(p-tolyl)-1H-pyrrolo[2,3-b]pyridin-5-yl)acetic acid]",0.1 µM
18,"Cc1ccc(-c2c(C(OC(C)(C)C)C(=O)O)c(C)nc3c2ccn3Cc2ccc(Cl)c(F)c2)cc1 (stereo not drawn) [Example 16, 2-(tert-butoxy)-2-(1-(4-chloro-3-fluorobenzyl)-6-methyl-4-(p-tolyl)-1H-pyrrolo[2,3-b]pyridin-5-yl)acetic acid]",0.36 µM
19,"Cc1ccc(-c2c([C@@H](OC(C)(C)C)C(=O)O)c(C)nc3c2ccn3Cc2ccc(F)c(F)c2)cc1 [Example 17, (R)-2-(tert-butoxy)-2-(1-(3,4-difluorobenzyl)-6-methyl-4-(p-tolyl)-1H-pyrrolo[2,3-b]pyridin-5-yl)acetic acid]",10 µM
20,"Cc1ccc(-c2c([C@H](OC(C)(C)C)C(=O)O)c(C)nc3c2ccn3Cc2ccc(F)c(F)c2)cc1 [Example 18, (S)-2-(tert-butoxy)-2-(1-(3,4-difluorobenzyl)-6-methyl-4-(p-tolyl)-1H-pyrrolo[2,3-b]pyridin-5-yl)acetic acid]",0.1 µM
21,"Cc1ccc(-c2c(C(OC(C)(C)C)C(=O)O)c(C)nc3c2ccn3Cc2ccccc2)cc1 (stereo not drawn) [Example 19, 2-(1-benzyl-6-methyl-4-(p-tolyl)-1H-pyrrolo[2,3-b]pyridin-5-yl)-2-(tert-butoxy)acetic acid]",0.17 µM
22,"Cc1ccc(-c2c(C(OC(C)(C)C)C(=O)O)c(C)nc3c2ccn3Cc2cc(Cl)ccc2F)cc1 (stereo not drawn) [Example 20, 2-(tert-butoxy)-2-(1-(5-chloro-2-fluorobenzyl)-6-methyl-4-(p-tolyl)-1H-pyrrolo[2,3-b]pyridin-5-yl)acetic acid]",0.23 µM
23,"Cc1ccc(-c2c(C(OC(C)(C)C)C(=O)O)c(C)nc3c2ccn3Cc2cccc(F)c2F)cc1 (stereo not drawn) [Example 21, 2-(tert-butoxy)-2-(1-(2,3-difluorobenzyl)-6-methyl-4-(p-tolyl)-1H-pyrrolo[2,3-b]pyridin-5-yl)acetic acid]",0.1 µM
24,"Cc1ccc(-c2c(C(OC(C)(C)C)C(=O)O)c(C)nc3c2ccn3Cc2cccc(Cl)c2F)cc1 (stereo not drawn) [Example 22, 2-(tert-butoxy)-2-(1-(3-chloro-2-fluorobenzyl)-6-methyl-4-(p-tolyl)-1H-pyrrolo[2,3-b]pyridin-5-yl)acetic acid]",0.86 µM

# Same assay, conditions: read-out: HIV MT4 Assay IC50; HTLV-1 transformed cell line MT-4; read-out 96 hours later with cell titer glo; 10 point dose response; Trifluoroacetic acid salt
row,Compound,IC50
1,"Cc1nc2c(c3c(n2C)CCCC3)c(-c2ccc3c(c2C)NCCO3)c1[C@H](OC(C)(C)C)C(=O)O (atropisomer, axis not shown; (M)) [Example 130, (2S)(M)-2-(tert-butoxy)-2-(2,9-dimethyl-4-(5-methyl-3,4-dihydro-2H-benzo[b][1,4]oxazin-6-yl)-6,7,8,9-tetrahydro-5H-pyrido[2,3-b]indol-3-yl)acetic acid, Trifluoroacetic acid salt]",0.01 µM
2,"Cc1nc2c(c3c(n2C)CCCC3)c(-c2ccc3c(c2C)NCCO3)c1[C@H](OC(C)(C)C)C(=O)O (atropisomer, axis not shown; (P)) [Example 129, (2S)(P)-2-(tert-butoxy)-2-(2,9-dimethyl-4-(5-methyl-3,4-dihydro-2H-benzo[b][1,4]oxazin-6-yl)-6,7,8,9-tetrahydro-5H-pyrido[2,3-b]indol-3-yl)acetic acid, Trifluoroacetic acid salt]",1 µM
